Patent US20120283235A1, “Dermatologic and Cosmetic Compositions” (DISCOVERY PARTNERS LLC, priority 2009, published 2012)

Test system: Adult human dermal fibroblasts
Experiment: Collagen type I in human dermal fibroblast conditioned media
Format: cell-based
Conditions: MAP 100 ug/ml; Vit. C 10 ug/ml; FIG. 1
Method: Adult human dermal fibroblasts (facial cells, from Cell Applications, Inc. San Diego, Calif., Catalog #106-05A, Lot 1339) were incubated for seventy-two hours in Fibroblast Growth Serum (Cell Applications, cat. #116-500). Four test formulations, each formulation used at three final test sample dilutions of 2.5%, 0.5% and 0.05%, were added to the incubated cells. All concentrations expressed in weight/weight unless otherwise noted: • (i) Test Formulation #1, CHL-01-057 (labeled “1”) served as a control and contained 90% purified water and 10% butylene glycol; • (ii) Test Formulation #2, CHL-01-053 (labeled “2”) containing 0.2% of 1-Disodium Copper Chlorin E4 in 10% butylene glycol and 89.8% purified water; • (iii) Test Formulation #3, (labeled #3) CHL-01-0 51 containing 0.2% Sodium Copper Chlorophyllin complex, USP in 10% butylene glycol and 89.8% purified water; • (iv) Test Formulation #4, CHL-01-055 (labeled “4”) containing 0.2% Sodium Zinc Chlorophyllin in 10% butylene glycol and 89.8% purified water. Based on the final dilutions, the amount of chlorin, chlorophyllin, or control compound added to the cell culture was 50 ppm, 10 ppm, and 1 ppm (ppm=parts per million by weight). Each of the above formulations was prepared by adding butylene glycol to water and mixing on a heating plate with a magnetic stirrer until the glycol fully dissolved. […]

Q: For O=C1O[C@H]([C@@H](O)CO)C([O-])=C1OP(=O)([O-])[O-].O=C1O[C@H]([C@@H](O)CO)C([O-])=C1OP(=O)([O-])[O-].[Mg+2].[Mg+2].[Mg+2] [Magnesium Ascorbyl Phosphate, magnesium ascorbyl phosphate], which “stimulatory activity on type 1 collagen production (positive controls)” value is on record?
A: Its value is “strong stimulatory activity”.

Q: Which “stimulatory activity on type 1 collagen production (positive controls)” value does the source give for O=C1O[C@H]([C@@H](O)CO)C(O)=C1O [vitamin C, ascorbic acid] here?
A: The value was “strong stimulatory activity”.
